{"source": "patent US6358521B1", "about": "“Fermented milk nutraceuticals” (priority 1993, dated 2002)", "test_system": "purulent wound infected with Staphylococcus aureus", "experiment": "Purulent skin-facial wound model infected with Staphylococcus aureus, topical treatment", "format": "in vivo, Chinchilla rabbits", "method": "The effect of topical administration of a fermented milk product prepared as described above was studied using 24 Chinchilla rabbits. Standard skin-facial wounds of about 2×2.5 cm (500 sq. mm) in size were inflicted in the back area of all the rabbits; a skin graft was dissected with subcutaneous fat and fascia up to a muscular layer, wound edges containing subcutaneous muscle were crushed with Kocher's forceps. Following hemeostasis, rabbits were infected by introducing 1 ml microbial suspension containing 1.5×10^9 Staphylococcus aureus into the wound.\nAll animals were divided into three groups each containing eight rabbits. In group I (test), the animals were treated with the fermented milk. For comparison, rabbits of Group II were treated with Rivanol (Chinosolfabrik, Germany). Group III consisted of control, untreated animals. Treatment was initiated on the third day postinfection. The fermented milk preparations were applied locally using liberally wetted, loosely placed napkins onto the wound followed by application of an aseptic dressing. Animals of the control group were maintained under identical conditions, and were subjected to daily wound sanitation and application of aseptic dressings.\nThe clinical course of wound healing was controlled based on a number of criteria—nature and amount of the discharge, terms for arresting a perifocal inflammatory reaction, necrolysis terms, emergence of granulations, epithelization, terms of a wound healing. At the same time, the surface area of the wound was measured; cytological, morphological studies of the wound edge and bottom were carried out; and bacteriological studies of wound discharge (prior and during the treatment) were performed. To determine the presence of microbes in sections, the preparations were Gram-Weigart stained. Bacteriological studies were carried out with regard to a rate and duration of Staphylococcus dissemination from a destruction focus. The following quantitative characteristics of dissemination were used: up to 25 colonies on a Petri dish=limited growth; up to 70 colonies=poor growth; up to 200 colonies=abundant growth; and more than 200 colonies=complete growth.\nMaterial from a purulent wound was removed with a calcined and quenched standard loop, 3 mm in diameter, emulsified in 1 ml saline and then plated by 0.05 ml onto Petri dishes of plain agar. The plated material was placed in an incubator at 37° C. for 18-20 hours followed by Staphylococcus aureus colony count.", "key": {"[1]": {"conditions": "local application, treatment from third day postinfection"}}}
{"compound": "CCOc1ccc2nc3cc(N)ccc3c(N)c2c1", "note": "[Rivanol]", "values": [{"measurement": "Edge epithelization advent", "setting": "[1]", "result": 15.1, "unit": "days"}, {"measurement": "Full wound filling with granules", "setting": "[1]", "result": 18.9, "unit": "days"}, {"measurement": "Full wound healing", "setting": "[1]", "result": 24.7, "unit": "days"}, {"measurement": "First granulation advent", "setting": "local application, treatment from third day postinfection, 8 rabbits per group", "result": 7.0, "unit": "days"}, {"measurement": "Full wound healing, days (first column of that name)", "setting": "local application, treatment from third day postinfection, column after first granulation advent", "result": 13.5, "unit": "days"}, {"measurement": "Nature of the cicatrix", "setting": "study of cicatrices after healing", "result": "a more coarse cicatricial tissue prevailed"}]}
